Assay results from PubChem BioAssay AID330 (DTP/NCI, 2004).
“And” between values parts separate entries of the source, which are not always exact repeats. Equal values may be shown once. Toxic doses and inconclusive results are not listed.

Test system: P388 leukemia ip, CD2F1 mice, survival T/C
Assay: NCI In Vivo Anticancer Drug Screen. Data for tumor model P388 Leukemia (intraperitoneal) in CD2F1 (CDF1) mice
Settings: endpoint: median survival time, higher = longer survival
Outline: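 Mice carrying the transplanted tumor received test compound or vehicle. Survival was recorded in each group, and the value is the treated-group measurement divided by that of the vehicle-treated control group.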

[1] = dose: 50.0 mg/kg/injection, schedule: Q01DX009 (ip), vehicle: Klucel (hydroxypropylcellulose) (HPC)
[2] = dose: 100.0 mg/kg/injection, schedule: Q01DX009 (ip), vehicle: Klucel (hydroxypropylcellulose) (HPC)
[3] = dose: 50.0 mg/kg/injection, schedule: Q01DX005 (ip), vehicle: Klucel (hydroxypropylcellulose) (HPC)
[4] = dose: 100.0 mg/kg/injection, schedule: Q01DX005 (ip), vehicle: Klucel (hydroxypropylcellulose) (HPC)
[5] = dose: 200.0 mg/kg/injection, schedule: Q01DX005 (ip), vehicle: Klucel (hydroxypropylcellulose) (HPC)
[6] = dose: 25.0 mg/kg/injection, schedule: Q01DX009 (ip), vehicle: other
[7] = dose: 50.0 mg/kg/injection, schedule: Q01DX009 (ip), vehicle: other
[8] = dose: 100.0 mg/kg/injection, schedule: Q01DX009 (ip), vehicle: other
[9] = dose: 200.0 mg/kg/injection, schedule: Q01DX009 (ip), vehicle: other
[10] = dose: 60.0 mg/kg/injection, schedule: Q01DX005 (ip), vehicle: saline with Tween-80
[11] = dose: 120.0 mg/kg/injection, schedule: Q01DX005 (ip), vehicle: saline with Tween-80

COc1cccc(OC)c1C(c1c(OC)cccc1OC)c1c(OC)cccc1OC
T/C (dose: 22.0 mg/kg/injection, schedule: Q04DX003 (ip), vehicle: saline with Tween-80): 109 % of control
T/C (dose: 33.0 mg/kg/injection, schedule: Q04DX003 (ip), vehicle: saline with Tween-80): 113 % of control
T/C (dose: 75.0 mg/kg/injection, schedule: Q04DX003 (ip), vehicle: saline with Tween-80): 109 % of control

Cc1nn(C(C)C(=O)N(C)C)c(Br)c1Br (stereo unspecified)
T/C [1]: 99 % of control
T/C [2]: 108 % of control
T/C (dose: 200.0 mg/kg/injection, schedule: Q01DX009 (ip), vehicle: Klucel (hydroxypropylcellulose) (HPC)): 111 % of control

CN1CCC/C1=C1/CCc2ccccc2C1=O
T/C [3]: 103 % of control
T/C [4]: 108 % of control
T/C [5]: 107 % of control

CN(C)P(=O)(N(C)C)N(C)CO
T/C (dose: 50.0 mg/kg/injection, schedule: Q01DX009 (ip), vehicle: saline): 98 % of control and 100 % of control
T/C (dose: 100.0 mg/kg/injection, schedule: Q01DX009 (ip), vehicle: saline): 104 % of control and 110 % of control
T/C (dose: 200.0 mg/kg/injection, schedule: Q01DX009 (ip), vehicle: saline): 121 % of control and 122 % of control
T/C (dose: 400.0 mg/kg/injection, schedule: Q01DX009 (ip), vehicle: saline): 86 % of control

[N-]=[N+]=NCC(=O)N1c2ccccc2Sc2ccccc21
T/C [6]: 108 % of control
T/C [7]: 103 % of control
T/C [8]: 95 % of control
T/C [9]: 108 % of control

CCN(C=Nc1ccc(Cl)cc1C)CC
T/C [1]: 105 % of control
T/C [2]: 117 % of control

COc1nc(N)nc2c1ncn2C1OC(CO)CC1O (stereo unspecified)
T/C (dose: 50.0 mg/kg/injection, schedule: Q01DX005 (ip), vehicle: saline with Tween-80): 86 % of control
T/C (dose: 100.0 mg/kg/injection, schedule: Q01DX005 (ip), vehicle: saline with Tween-80): 88 % of control
T/C (dose: 200.0 mg/kg/injection, schedule: Q01DX005 (ip), vehicle: saline with Tween-80): 97 % of control

O=C(/N=C1\N=Nc2nc(C(C(=O)c3ccc(F)cc3)c3nc4n(c3O)/C(=N/C(=O)Nc3ccc(Cl)cc3)N=N4)c(O)n21)Nc1ccc(Cl)cc1 (stereo unspecified)
T/C [10]: 91 % of control
T/C [11]: 91 % of control
T/C (dose: 240.0 mg/kg/injection, schedule: Q01DX005 (ip), vehicle: saline with Tween-80): 88 % of control

COc1cc2ccc3c4c(OC)c(OC)c(OC)cc4c[n+](C)c3c2cc1OC
T/C (dose: 2.0 mg/kg/injection, schedule: Q01DX009 (ip), vehicle: water): 111 % of control
T/C (dose: 4.0 mg/kg/injection, schedule: Q01DX009 (ip), vehicle: water): 113 % of control
T/C (dose: 8.0 mg/kg/injection, schedule: Q01DX009 (ip), vehicle: water): 110 % of control
T/C (dose: 16.0 mg/kg/injection, schedule: Q01DX009 (ip), vehicle: water): 118 % of control

Nc1nc(N)c2cc(CNc3ccc(C(=O)NC(CC(=O)O)C(=O)O)cc3)ccc2n1 (stereo unspecified)
T/C (dose: 0.13 mg/kg/injection, schedule: Q04DX003 (ip), vehicle: saline with Tween-80): 109 % of control
T/C (dose: 0.25 mg/kg/injection, schedule: Q04DX003 (ip), vehicle: saline with Tween-80): 113 % of control
T/C (dose: 0.5 mg/kg/injection, schedule: Q01DX009 (ip), vehicle: saline): 181 % of control
T/C (dose: 1.0 mg/kg/injection, schedule: Q01DX009 (ip), vehicle: saline): 200 % of control
T/C (dose: 1.0 mg/kg/injection, schedule: Q04DX003 (ip), vehicle: saline with Tween-80): 150 % of control
T/C (dose: 1.56 mg/kg/injection, schedule: Q01DX009 (ip), vehicle: saline): 222 % of control
T/C (dose: 3.13 mg/kg/injection, schedule: Q01DX009 (ip), vehicle: saline): 259 % of control
T/C (dose: 6.25 mg/kg/injection, schedule: Q01DX009 (ip), vehicle: saline): 90 % of control

O=C1CCCc2c1cc(C1CCCC1)c1ccccc21
T/C (dose: 60.0 mg/kg/injection, schedule: Q01DX005 (ip), vehicle: Klucel (hydroxypropylcellulose) (HPC)): 104 % of control
T/C (dose: 120.0 mg/kg/injection, schedule: Q01DX005 (ip), vehicle: Klucel (hydroxypropylcellulose) (HPC)): 94 % of control
T/C (dose: 240.0 mg/kg/injection, schedule: Q01DX005 (ip), vehicle: Klucel (hydroxypropylcellulose) (HPC)): 101 % of control

COc1ccccc1N(CCCO)C(=S)Nc1ccccc1
T/C [6]: 105 % of control
T/C [7]: 110 % of control
T/C [8]: 122 % of control
T/C [9]: 111 % of control
T/C (dose: 400.0 mg/kg/injection, schedule: Q01DX009 (ip), vehicle: other): 111 % of control

Nc1n[nH][nH]c1=O
T/C (dose: 60.0 mg/kg/injection, schedule: Q01DX005 (ip), vehicle: saline): 100 % of control
T/C (dose: 120.0 mg/kg/injection, schedule: Q01DX005 (ip), vehicle: saline): 116 % of control
T/C (dose: 240.0 mg/kg/injection, schedule: Q01DX005 (ip), vehicle: saline): 100 % of control

C=C(c1ccc(OC)cc1)C(CC)c1ccc(OC)cc1 (stereo unspecified)
T/C [10]: 101 % of control
T/C [11]: 100 % of control

N#CCc1cccc2c(=O)cc(-c3ccccc3)oc12
T/C [3]: 106 % of control
T/C [4]: 96 % of control
T/C [5]: 87 % of control

CSc1cccc(NC(=O)Oc2ccc([N+](=O)[O-])cc2Cl)c1
T/C (dose: 6.25 mg/kg/injection, schedule: Q01DX009 (ip), vehicle: DMSO): 100 % of control
T/C (dose: 12.5 mg/kg/injection, schedule: Q01DX009 (ip), vehicle: DMSO): 93 % of control

Clc1ccc(C(Nc2nncs2)Nc2nncs2)c(Cl)c1
T/C (dose: 100.0 mg/kg/injection, schedule: Q04DX002 (ip), vehicle: Klucel (hydroxypropylcellulose) (HPC)): 109 % of control
T/C (dose: 200.0 mg/kg/injection, schedule: Q04DX002 (ip), vehicle: Klucel (hydroxypropylcellulose) (HPC)): 114 % of control

CC1CN=C(c2ccc(NC(=O)c3ccc(NC(=O)c4ccc(C5=NCC(C)N5)cc4)cc3)cc2)N1 (stereo unspecified)
T/C (dose: 6.25 mg/kg/injection, schedule: Q01DX005 (ip), vehicle: saline with Tween-80): 119 % of control and 123 % of control
T/C (dose: 12.5 mg/kg/injection, schedule: Q01DX005 (ip), vehicle: saline with Tween-80): 110 % of control

CCOC(=O)/C=C(\C)NC1CC(OC2CC(O)(C(C)=O)Cc3c(O)c4c(c(O)c32)C(=O)c2c(OC)cccc2C4=O)OC(C)C1O (stereo unspecified)
T/C (dose: 6.25 mg/kg/injection, schedule: Q04DX003 (ip), vehicle: distilled water + Tween-80): 110 % of control
T/C (dose: 12.5 mg/kg/injection, schedule: Q04DX003 (ip), vehicle: distilled water + Tween-80): 119 % of control
T/C (dose: 50.0 mg/kg/injection, schedule: Q04DX003 (ip), vehicle: distilled water + Tween-80): 118 % of control

Cc1nc(Nc2ccccc2Cl)c2ccsc2n1
T/C [3]: 100 % of control
T/C [4]: 93 % of control
T/C [5]: 87 % of control

COC(=O)c1cn(C2OC(CO)C(O)C2O)c2ncnc(N)c12 (stereo unspecified)
T/C (dose: 3.75 mg/kg/injection, schedule: Q01DX005 (ip), vehicle: saline with Tween-80): 103 % of control
T/C (dose: 7.5 mg/kg/injection, schedule: Q01DX005 (ip), vehicle: saline with Tween-80): 104 % of control
T/C (dose: 15.0 mg/kg/injection, schedule: Q01DX005 (ip), vehicle: saline with Tween-80): 117 % of control and 98 % of control
T/C [10]: 100 % of control

Cc1ccc(C(=O)C2C(=O)C(=O)OC2C2OC(=O)C(=O)C2C(=O)c2ccc(C)cc2)cc1 (stereo unspecified)
T/C (dose: 60.0 mg/kg/injection, schedule: Q01DX005 (ip), vehicle: saline + Tween-80 + alcohol): 101 % of control
T/C (dose: 120.0 mg/kg/injection, schedule: Q01DX005 (ip), vehicle: saline + Tween-80 + alcohol): 104 % of control
T/C (dose: 240.0 mg/kg/injection, schedule: Q01DX005 (ip), vehicle: saline + Tween-80 + alcohol): 102 % of control

COc1ccc(NCS(=O)(=O)O)cc1
T/C (dose: 100.0 mg/kg/injection, schedule: Q04DX003 (ip), vehicle: saline): 100 % of control
T/C (dose: 200.0 mg/kg/injection, schedule: Q04DX003 (ip), vehicle: saline): 108 % of control
T/C (dose: 400.0 mg/kg/injection, schedule: Q04DX003 (ip), vehicle: saline): 104 % of control

CCOC(CBr)(OCC)OCC
T/C (dose: 25.0 mg/kg/injection, schedule: Q01DX009 (ip), vehicle: saline with Tween-80): 94 % of control
T/C (dose: 50.0 mg/kg/injection, schedule: Q01DX009 (ip), vehicle: saline with Tween-80): 113 % of control
T/C (dose: 100.0 mg/kg/injection, schedule: Q01DX009 (ip), vehicle: saline with Tween-80): 113 % of control

N#CC(C(O)c1ccccc1)N1CCCCC1 (stereo unspecified)
T/C (dose: 50.0 mg/kg/injection, schedule: Q01DX009 (ip), vehicle: suspension in saline): 111 % of control
T/C (dose: 100.0 mg/kg/injection, schedule: Q01DX009 (ip), vehicle: suspension in saline): 100 % of control
T/C (dose: 200.0 mg/kg/injection, schedule: Q01DX009 (ip), vehicle: suspension in saline): 92 % of control
